Residues, ends and D or L forms follow the SMILES beside them. *: point of attachment. Cbz = O=C(OCc1ccccc1)*; tBu = CC(C)(C)*
Tests used:
Eimeria spp. = details: 20 mg/kg body weight, up to 14 days before the experimental infection; on average; cited from earlier work
cathepsin L = cathepsin L (Homo sapiens, UniProt P07711); details: cited from earlier work
coccidiae = assay: coccidiosis finding in the in vivo pigeon study; set-up: species or system Columba livia forma domestica; details: 5 mg/kg oral twice daily during 4 days; 3 of 15 placebo pigeons still showed coccidiae
Method: (§1) Thirty Columba livia forma domestica of both gender (2 groups of fifteen birds) were inoculated per os via a syringe with 2 million T. gallinae cultured from the Vienna strain. Initial age of the pigeons was 4-5 months. Two days later the pigeons were treated with twice daily oral administration of 5 mg/kg of Z—FY—CHO or the placebo (vehicle alone) during 4 days. The formulation was composed of 50 mg of the agent added to 1.0 ml 96 g/v % ethanol and 4 gram of prewarmed Solutol HS15. The formulation was stirred to a clear solution, then it was topped up with prewarmed distilled water to a volume of 10 ml. From this solution 0.1 ml per 100 g body weight was administered (=5 mg/kg). […] Regurgitation has been detected first in one pigeon from the placebo group in the evening on day of infection. […] No gross pathological findings in the esophagus or crop were detected during the necropsy. However, heterophilic infiltrates in the mucosa as well as in the submucous tissue and lymphocytes and plasmacells in the submucous tissue have been detected histopathologically in total eight pigeons (27%). Catarrhal erosive esophagitis and ingluvitis was significant more often detected in pigeons from the placebo group (7 of 8 pigeons with inflammatory reaction of the esophagus and crop, 88%; p=0.018).

T. gallinae [1] = assay: in vitro growth of T. gallinae (total trophozoite number); assay type: cell-based, Trichomonas gallinae; details: 10,000 nM, after 24 hours of treatment, normalized to 1% DMSO-treated group NCA
Method: (§2) Z—FY—CHO was tested in an in vitro assay on growth and viability of two strains of T. gallinae (Vienna strain and ATCC 30095). T. gallinae is cultured in vitro under axenic conditions. Both strains are cultured in ATCC® Medium 2154 (LYI Entamoeba medium) which is prepared according to the recommendations of ATCC. Culture conditions are anaerobic at 37° C. Cultures are kept in sterile 50 ml plastic tubes in a total volume of 10 ml. T. gallinae cultures are passaged regularly (in two-day intervals) in advance to maintain the strains for the study.
Quantification of total parasite number: The total parasite number is calculated separately for each tube. Therefore, the contents of each tube are centrifuged and the sediment resuspended in a given volume. A dilution of a subsample is being examined in a Neubauer counting chamber, the total number of parasites counted and the number of parasites in the respective tube be calculated.
Each treatment group consists of 3 identical replicates, i.e. 3 tubes with identical treatment (triplicate).
(§3) Five concentrations of each substance were tested against T. gallinae, namely 1 nM, 10 nM, 100 nM, 1000 nM, and 10000 nM. The total exposure time of the test compounds for the efficacy assay was 72 hours; media were renewed in intervals of 24 hours. Efficacy was measured after 24 hours of incubation.

[2] = side effects in the in vivo pigeon study; set-up: species or system Columba livia forma domestica; details: 10 mg/kg per day oral, 4 days, pigeons
Method: as §1

T. gallinae [3] = assay: in vitro viability of T. gallinae (viable-to-dead ratio, DAPI staining); assay type: cell-based, Trichomonas gallinae; details: different concentrations; after 24 hours of treatment
Method: as §2, §3
The total parasite number is calculated before a subsample is subject to counting of viable and dead parasites. For counting, parasites are stained by DAPI nucleus staining for differentiation of viable and dead parasites.

[4] = tested on: T. gallinae cultured from the Vienna strain; assay: in vivo efficacy study in pigeons inoculated with T. gallinae; set-up: species or system Columba livia forma domestica; details: 5 mg/kg oral twice daily during 4 days, 15 birds per group
Method: as §1

Histomonas meleagridis = details: 300-400 ppm, cited from earlier work

Chain of cathepsin L (P07711 114-333, species assumed): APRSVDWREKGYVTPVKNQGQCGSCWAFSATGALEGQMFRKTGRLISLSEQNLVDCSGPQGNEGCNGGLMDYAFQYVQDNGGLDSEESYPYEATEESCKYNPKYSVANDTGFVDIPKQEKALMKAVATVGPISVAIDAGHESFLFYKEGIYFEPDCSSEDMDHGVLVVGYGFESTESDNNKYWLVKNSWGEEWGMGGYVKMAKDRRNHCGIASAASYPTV

SMILES: Cc1cc(-n2c(=O)[nH]c(=O)n(C)c2=O)ccc1Oc1ccc(SC(F)(F)F)cc1 [toltrazuril]
- reduction in the number of oocysts in individual fecal samples (Eimeria spp.): more than 97%

SMILES: CC(C)(C)Oc1ccc(CC(C=O)NC(=O)C(Cc2ccccc2)NC(=O)OCc2ccccc2)cc1 (stereo not drawn) [f, Z-Phe-Tyr(Bu)-CHO] (Cbz-Phe-Tyr(tBu)-aldehyde; configuration not given here)
- IC50 (cathepsin L): 6.96 nM

SMILES: CC(C)C[C@@H](C=O)NC(=O)[C@H](Cc1ccccc1)NC(=O)OCc1ccccc1 [c, Z-Phe-Leu-CHO] (Cbz-Phe-Leu-aldehyde)
- IC50 (cathepsin L): 0.78 nM

SMILES: COc1ccc(C[C@@H](C=O)NC(=O)[C@H](Cc2ccccc2)NC(=O)OCc2ccccc2)cc1 [e, Z-Phe-Tyr(Me)-CHO] (Cbz-Phe-Tyr(Me)-aldehyde)
- IC50 (cathepsin L): 2.95 nM

SMILES: O=C[C@H](Cc1ccc(O)cc1)NC(=O)[C@H](Cc1ccccc1)NC(=O)OCc1ccccc1 [b, N-(benzyloxycarbonyl)-L-phenylalanyl-L-tyrosinal] (Cbz-Phe-Tyr-aldehyde)
- detection of coccidiae after treatment (coccidiae): no coccidiae could be detected
- trophozoite number relative to group NCA (control group) (T. gallinae [1]; ATCC 30095 strain): 26.3%
- trophozoite number relative to group NCA (control group) (T. gallinae [1]; Vienna strain): 24.0%
- side effects [2]: no obvious and/or statistically significant side effects
- viable-to-dead ratios compared to the control group NCA (T. gallinae [3]): Markedly lower
- pigeons with regurgitation ([4]; placebo 7 of 15, p=0.018): one
- pigeons with catarrhal erosive esophagitis and ingluvitis (histopathology) ([4]; placebo 7 pigeons, p=0.018): one

SMILES: CC1CS(=O)(=O)CCN1/N=C/c1ccc([N+](=O)[O-])o1 (stereo not drawn) [Nifurtimox]
- tolerability (Histomonas meleagridis; turkeys): tolerated by turkeys
- efficacy (antiprotozoal) (Histomonas meleagridis): effective

SMILES: C[C@@H](C=O)NC(=O)[C@H](Cc1ccccc1)NC(=O)OCc1ccccc1 [d, Z-Phe-Ala-CHO]
- IC50 (cathepsin L): 15.5 nM

SMILES: O=C[C@H](Cc1ccccc1)NC(=O)[C@H](Cc1ccccc1)NC(=O)OCc1ccccc1 [a, Z-Phe-Phe-CHO] (Cbz-Phe-Phe-aldehyde)
- IC50 (cathepsin L): 0.74 nM

— patent publication US20190030113A1, “DIPEPTIDYL ALDEHYDES FOR THE TREATMENT AND/OR PREVENTION OF PARASITIC DISEASES” (AXIAVA PHARMA UG, priority 2017, published 2019)
